Like-named read-outs stand apart in the source and are kept apart here.
Columns and labels:
HepG2-A16-CD81EGFP cells [1] = assay: cells; details: Homo sapiens, HepG2, read-out: % inhibition
[2] = test system: Plasmodium berghei (Pb-Luc) exoerythrocytic-stage parasites; assay: microbe, parasite or virus in culture
HepG2-A16-CD81EGFP cells [3] = details: human, 50 uM
[4] = read-out: Inhibition% @ 50 uM rep1
[5] = read-out: Inhibition% @ 50 uM rep2

SMILES	inhibition at 50 µM (HepG2-A16-CD81EGFP cells [1]) [%]	inhibition at 50 µM [2, 4] [%]	inhibition at 50 µM [2, 5] [%]	HepG2 Tox% @ 50 uM rep2 (HepG2-A16-CD81EGFP cells [3]) [%]	HepG2 Tox% @ 50 uM rep1 (HepG2-A16-CD81EGFP cells [3]) [%]
COCCNCC(O)Cn1c2ccc(Cl)cc2c2cc(Cl)ccc21 (stereo not shown) [MMV019017]	96.7	103	102	99	
OC(CNC1CCCCC1)Cn1c2ccccc2c2ccccc21 (stereo not shown) [MMV009063]	98.6	104	105	101	
CCC(C)NCC(O)(c1ccc(Cl)cc1)c1ccc(Cl)cc1 (stereo not shown) [MMV665928]	99.2	104	106	102	
O=C(Nc1cccc(-c2nc3ccccc3[nH]2)c1)c1cccc(NC(=O)c2ccco2)c1 [MMV665883]	97.2	101	102	99	
CCC(c1ccccc1)c1nn2c(-c3cccs3)nnc2s1 (stereo not shown) [MMV665876]	93.6	99	103	96	
CCOc1ccc(-n2cc(-c3ccccc3)c3c(SCc4cc(C)ccc4C)ncnc32)cc1 [MMV085471]	-12.2	11	-7		-12
O=C(NCC1Cc2cccc(-c3ccncc3)c2O1)c1csc2c1CCCC2 (stereo not shown) [MMV665954]	95.9	100	102	98	
CCCCOC(=O)c1ccc(Nc2cc(C)nc3ccc(OC)cc23)cc1 [MMV665797]	95.1	100	101		
COc1ccc(C(=O)C2CC2c2ccc(Cl)cc2)cc1 (stereo not shown) [MMV665924]	38.1	79	83		
Cn1c(C(=O)c2cccc3ccccc23)nc2ccccc21 [MMV665824]	35.6	96	98		
CCOc1c(Br)cc(C2C(C(=O)OC)=CN(C)C=C2C(=O)OC)cc1OC [MMV006764]	31.2	103	103		
O=C(Nc1cccc(C2=NCCN2)c1)Nc1cccc(C2=NCCN2)c1 [MMV665810]	48.2	61	83		
COc1ccc(CN2CCN(Cc3ccccc3)CC2)c(O)c1 [MMV665944]	85.9	69	72		
COc1cccc(Nc2nc(N)c3ccccc3n2)c1 [MMV019199]	88.3	98	99		
COc1ccc(C=C2SC(Nc3ccccc3)=NC2=O)cc1 [MMV665836]	83.2	103	103		
COc1ccc(C(=O)NC(c2ccccc2Cl)c2cc(Cl)c3cccnc3c2O)cc1 (stereo not shown) [MMV666022]	99.5	103	104		
CCCCN(CCCC)S(=O)(=O)c1ccc(NC(=O)c2ccco2)cc1 [MMV007881]	94.7	98	99		
Clc1ccc2c(N3CCCC3)ccnc2c1 [MMV007363]	39.1	91	94		
COc1cc(OC)cc(N2C(=O)N(Cc3ccc(C(C)(C)C)cc3)c3ccccc3S2(=O)=O)c1 [MMV008173]	-9.98	78	88		
Nc1ccn([C@@H]2O[C@H](CO)[C@@H](O)[C@H]2O)c(=O)n1 [MMV638723]	3.04	30	19		
Cc1cc(N2CCCC2)nc(Nc2ccc(NC(=O)CCc3ccccc3)cc2)n1 [MMV396669]	96.9	103	103		
CC1CCN(Cc2c(O)ccc3cc(-c4nc5ccccc5s4)c(=O)oc23)CC1 [MMV009127]	-10.1	75	76		
O=C(NC1CCCCC1)C(c1cccs1)N(CCc1ccccc1)C(=O)c1ccco1 (stereo not shown) [MMV666106]	76.6	102	103		
Cc1cccc(N2C(=O)C3C(C2=O)C2(c4ccccc4)C(=O)C3(c3ccccc3)C(c3ccc4c(c3)OCO4)=C2c2ccc3c(c2)OCO3)c1 (stereo not shown) [MMV007228]	-4.28	57	57		
COc1ccc(OC)c(C2C3=C(CC(C)(C)CC3=O)N(c3ccc(Cl)c(Cl)c3)C3=C2C(=O)CC(C)(C)C3)c1 [MMV007208]	-4.26	-11	-11		
CCOc1ccc2c(c1)CN(Cc1ccc(Cl)cc1)CO2 [MMV000443]	95.5	102	104		
CCCCCCc1cc2cc(-c3csc(C=Cc4ccccc4)n3)c(=O)oc2cc1O [MMV666692]	99.5	104	104		
